Measured values published in patent publication US7704533B2, “Compositions and methods of inducing hair growth utilizing Continus coggygria” (J&J Consumer Companies, Inc., priority 2006, dated 2010).

Legend:
C3H mice = assay: Hair growth induction in C3H mice (mice entering anagen); format: in vivo
Excerpt: C3H female mice age 6-7 weeks of age were purchased from Taconic Farms (Germantown, N.Y.). Mice were housed in appropriately sized cages in an environmentally controlled room with a 12-hour light-12-hour dark photoperiod and supplied with food and water ad libitum. Animal care was based on the “Guide for the Care and Use of Laboratory Animals”, NIH Publication No. 85-23. Animals were acclimated for a week before study starts. Once all mice entered their prolonged telogen/resting phase (about 50-60 days long) of the hair cycle, they were clipped over the dorsal area about 1.5×5 cm (Wahl Clippers 8900 Series, Blade # 1086). Seven female mice per group were clipped while sedated with 2% induction and maintenance isoflurane and 0.5 L Oxygen. In addition to the 150 mg/ml Cotinus coggygria formulation, the treatment groups included a placebo, 5% Minoxidil as positive control and an untreated group to serve as control for natural hair growth initiation and to observe placebo effects. 200 μl of test materials were applied topically to the area daily, 5 days a week. Images were taken at the first signs of anagen/active growth phase and when needed based on visual observation. Skin samples were obtained for histological analysis at week 3 and a study log documenting day-to-day observations of mice entering anagen (grey skin, the first visual clue to a new hair growth) were recorded. Treatments continued for up to 6 weeks. […] C3H mice were treated as described in Example 3. In addition to the 150 mg/ml Cotinus coggygria formulation prepared as a concentrate via heat processing, a lyophilized Cotinus extract powder was prepared as described above, as well as lower (60 mg/ml, 90 mg/ml, 120 mg/ml) and higher concentrations (up to 210 mg/ml) of Cotinus coggygria extracts (Table III). The treatment groups included a placebo, 5% minoxidil as positive control and an untreated group to serve as control for natural hair growth initiation and to observe placebo effects. 200 ul of test materials were applied topically to the area daily, 5 days a week. Images were taken at the first signs of anagen/active growth phase and when needed based on visual observation. Skin samples were obtained for histological analysis and a study log documenting day-to-day observations of mice entering anagen (grey skin) were recorded. Treatments continued for up to 6 weeks. […] Moreover, a dose-dependent increase in dorsal hair coverage was observed visually and documented by images, and also confirmed by histological analysis. […] C3H female mice clipped over the dorsal area once they have entered their prolonged telogen phase (about 8 weeks long) were topically treated once daily for 6 weeks with 200 μl 150 mg/ml of Cotinus coggygria extract or with 5% Minoxidil or with the combination of both agents. […] C3H hair growth studies were performed as described in earlier examples, with the addition of formulation agents to the cotinus extract preparation.

[1] = system: postmenopausal women with androgenetic alopecia; conditions: one-year trial; cited from earlier work

Question: With `Nc1cc(N2CCCCC2)nc(N)[n+]1[O-]` [5% Minoxidil, Minoxidil] as the compound, how does the “% of mice entering anagen” value (C3H mice; Table II, day 9 of study, listed as Ave 5% Minoxidil) read?
Answer: 7%

Question: And the “% of mice entering anagen” value (C3H mice; Table II, day 9 of study, listed as Best 5% Minoxidil)?
Answer: 20%

Question: And the “% of mice entering anagen” value (C3H mice; Table II, day 10 of study, listed as Ave 5% Minoxidil)?
Answer: 18%

Question: What about the “% of mice entering anagen” value (C3H mice; Table II, day 10 of study, listed as Best 5% Minoxidil) of the same compound?
Answer: 40%

Question: What about the “% of mice entering anagen” value (C3H mice; Table II, day 13 of study, listed as Ave 5% Minoxidil) of the same compound?
Answer: 18%

Question: And the “% of mice entering anagen” value (C3H mice; Table II, day 13 of study, listed as Best 5% Minoxidil)?
Answer: 40%

Question: And the “% of mice entering anagen” value (C3H mice; Table II, day 14 of study, listed as Ave 5% Minoxidil)?
Answer: 31%

Question: What about the “% of mice entering anagen” value (C3H mice; Table II, day 14 of study, listed as Best 5% Minoxidil) of the same compound?
Answer: 80%

Question: And the “% of mice entering anagen” value (C3H mice; Table II, day 16 of study, listed as Ave 5% Minoxidil)?
Answer: 31%

Question: And the “% of mice entering anagen” value (C3H mice; Table II, day 16 of study, listed as Best 5% Minoxidil)?
Answer: 80%

Question: And the “% of mice entering anagen” value (C3H mice; Table II, day 20 of study, listed as Ave 5% Minoxidil)?
Answer: 32%

Question: And the “% of mice entering anagen” value (C3H mice; Table II, day 20 of study, listed as Best 5% Minoxidil)?
Answer: 80%

Question: And the “% of mice entering anagen” value (C3H mice; Table II, day 22 of study, listed as Ave 5% Minoxidil)?
Answer: 41%

Question: What about the “% of mice entering anagen” value (C3H mice; Table II, day 22 of study, listed as Best 5% Minoxidil) of the same compound?
Answer: 80%

Question: And the “% of mice entering anagen” value (C3H mice; Table II, day 23 of study, listed as Ave 5% Minoxidil)?
Answer: 38%

Question: What about the “% of mice entering anagen” value (C3H mice; Table II, day 23 of study, listed as Best 5% Minoxidil) of the same compound?
Answer: 80%

Question: And the “% of mice entering anagen” value (C3H mice; Table II, day 24 of study, listed as Ave 5% Minoxidil)?
Answer: 36%

Question: What about the “% of mice entering anagen” value (C3H mice; Table II, day 24 of study, listed as Best 5% Minoxidil) of the same compound?
Answer: 75%

Question: And the “% of mice entering anagen” value (C3H mice; Table II, day 27 of study, listed as Ave 5% Minoxidil)?
Answer: 36%

Question: And the “% of mice entering anagen” value (C3H mice; Table II, day 27 of study, listed as Best 5% Minoxidil)?
Answer: 75%

Question: What about the “% of mice entering anagen” value (C3H mice; Table II, day 29 of study, listed as Ave 5% Minoxidil) of the same compound?
Answer: 36%

Question: What about the “% of mice entering anagen” value (C3H mice; Table II, day 29 of study, listed as Best 5% Minoxidil) of the same compound?
Answer: 100%

Question: What about the “% of mice entering anagen” value (C3H mice; Table II, day 31 of study, listed as Ave 5% Minoxidil) of the same compound?
Answer: 45%

Question: What about the “% of mice entering anagen” value (C3H mice; Table II, day 31 of study, listed as Best 5% Minoxidil) of the same compound?
Answer: 100%

Question: And the “% of mice entering anagen” value (C3H mice; Table II, day 35 of study, listed as Ave 5% Minoxidil)?
Answer: 48%

Question: And the “% of mice entering anagen” value (C3H mice; Table II, day 35 of study, listed as Best 5% Minoxidil)?
Answer: 100%

Question: What about the “% of mice entering anagen” value (C3H mice; Table II, day 42 of study, listed as Ave 5% Minoxidil) of the same compound?
Answer: 63%

Question: And the “% of mice entering anagen” value (C3H mice; Table II, day 42 of study, listed as Best 5% Minoxidil)?
Answer: 100%

Question: What about the “% of mice entering anagen” value (C3H mice; Table II, day 43 of study, listed as Ave 5% Minoxidil) of the same compound?
Answer: 87%

Question: What about the “% of mice entering anagen” value (C3H mice; Table II, day 43 of study, listed as Best 5% Minoxidil) of the same compound?
Answer: 100%

Question: And the “% of mice entering anagen” value (C3H mice; Table II, day 44 of study, listed as Ave 5% Minoxidil)?
Answer: 93%

Question: What about the “% of mice entering anagen” value (C3H mice; Table II, day 44 of study, listed as Best 5% Minoxidil) of the same compound?
Answer: 100%

Question: And the “% of mice entering anagen” value (C3H mice; Table III, day 8 of study)?
Answer: 0%

Question: What about the “% of mice entering anagen” value (C3H mice; Table III, day 9 of study) of the same compound?
Answer: 0%

Question: What about the “% of mice entering anagen” value (C3H mice; Table III, day 10 of study) of the same compound?
Answer: 14%

Question: What about the “% of mice entering anagen” value (C3H mice; Table III, day 11 of study) of the same compound?
Answer: 43%

Question: And the “% of mice entering anagen” value (C3H mice; Table III, day 14 of study)?
Answer: 33%

Question: And the “% of mice entering anagen” value (C3H mice; Table III, day 15 of study)?
Answer: 33%

Question: What about the “% of mice entering anagen” value (C3H mice; Table III, day 16 of study) of the same compound?
Answer: 33%

Question: And the “% of mice entering anagen” value (C3H mice; Table III, day 17 of study)?
Answer: 20%

Question: And the “% of mice entering anagen” value (C3H mice; Table III, day 18 of study)?
Answer: 40%

Question: What about the “% of mice entering anagen” value (C3H mice; Table III, day 21 of study) of the same compound?
Answer: 80%

Question: What about the “% of mice entering anagen” value (C3H mice; Table III, day 22 of study) of the same compound?
Answer: 80%

Question: And the “% of mice entering anagen” value (C3H mice; Table III, day 23 of study)?
Answer: 80%

Question: What about the “% of mice entering anagen” value (C3H mice; Table III, day 24 of study) of the same compound?
Answer: 80%

Question: And the “% of mice entering anagen” value (C3H mice; Table III, day 25 of study)?
Answer: 80%

Question: And the “% of mice entering anagen” value (C3H mice; Table III, day 28 of study)?
Answer: 80%

Question: What about the “% of mice entering anagen” value (C3H mice; Table III, day 29 of study) of the same compound?
Answer: 80%

Question: Which scalp hair growth [1] does the source give for `CC(C)(C)NC(=O)[C@H]1CC[C@H]2[C@@H]3CC[C@H]4NC(=O)C=C[C@]4(C)[C@H]3CC[C@]12C` [Finasteride] here?
Answer: did not improve scalp hair growth
